Measured values: article PMC10855526 (2024)

Key:
[1] = test system: A20:T20 duplex DNA (dA20:dT20) (DNA, duplex) AAAAAAAAAAAAAAAAAAAA/TTTTTTTTTTTTTTTTTTTT; assay: UV thermal melting at 260 nm; settings: 20 mM NaCl; 10 mM HEPES pH 7.5; 200 µM chloroquine; 4 µM duplex; fitted saturating ΔTm 16 ± 2 °C
[2] = test system: A20:T20 duplex DNA (dA20:dT20) (DNA, duplex) AAAAAAAAAAAAAAAAAAAA/TTTTTTTTTTTTTTTTTTTT; assay: UV thermal melting, ΔTm binding isotherm fit; settings: 20 mM NaCl; 10 mM HEPES pH 7.5; 4 µM duplex; chloroquine diphosphate; from ΔTm vs concentration
[3] = test system: A20:T20 duplex DNA (dA20:dT20) (DNA, duplex) AAAAAAAAAAAAAAAAAAAA/TTTTTTTTTTTTTTTTTTTT; assay: isothermal titration calorimetry; settings: 20 mM NaCl (30 mM Na+ in Table 1); 10 mM Na phosphate pH 7.5; 25 °C; 10 µM DNA; N constrained to 4; binding site size 5 bp

Tm increase [1]: ~ 10 °C
KD [2]: 90 ± 10 µM
KD [3]: 360 ± 20 µM
SMILES: CCN(CC)CCCC(C)Nc1ccnc2cc(Cl)ccc12 (stereo not drawn)
